Read-outs that look alike come from different tables or passages of the source.
Key:
cells = conditions: Homo sapiens, DLD-1, 240 h
[1] = molecular target: T1, helicase domain of the Pol θ protein (Homo sapiens, UniProt O75417); assay: Biochemical Activity Assay (ADP Glo Assay) of Pol θ inhibitor, ATPase activity; conditions: ssDNA substrate, read-out: Biochemical assay IC50
T1 construct: The helicase domain of the Pol θ protein was purified from insect protein expression system; made in house; host or cells: insect protein expression system

[2] = read-out: Cell viability assay IC50 (nM), CTG assay, CellTiter Glo, read on Day 10, cell line not given
[3] = read-out: Cell viability assay IC50 (nM), CTG on Day 10, cell line not given (method: DLD1 and DLD1^-/- cells)
[4] = ADP-Glo assay, ATPase activity of Pol θ helicase domain
[5] = ADP-Glo, 60 min at room temperature

T1 sequence (O75417 102-554 limits assumed): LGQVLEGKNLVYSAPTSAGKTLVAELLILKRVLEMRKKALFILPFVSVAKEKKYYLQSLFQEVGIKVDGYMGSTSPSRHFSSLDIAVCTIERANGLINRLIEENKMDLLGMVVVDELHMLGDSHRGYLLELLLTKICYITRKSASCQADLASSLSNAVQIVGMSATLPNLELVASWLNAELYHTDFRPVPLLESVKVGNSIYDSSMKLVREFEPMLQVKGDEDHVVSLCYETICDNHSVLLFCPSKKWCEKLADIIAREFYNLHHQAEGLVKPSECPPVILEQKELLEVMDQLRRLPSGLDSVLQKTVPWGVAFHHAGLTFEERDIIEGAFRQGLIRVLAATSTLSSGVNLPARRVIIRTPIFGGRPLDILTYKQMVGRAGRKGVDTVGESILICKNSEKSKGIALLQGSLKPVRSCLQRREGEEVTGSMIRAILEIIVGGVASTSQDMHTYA

Compound | IC50 [1, 4] [nM] | IC50 [1, 5] [nM] | IC50 (cells; [2]) [nM] | IC50 (cells; [3]) [nM]
COc1cnc(Cl)cc1-c1cc(C)ncc1C(=O)Nc1nc2ccc(-c3ccncc3C)nc2s1 [Example 83] | 3.21 | < 50 | 29.3 | < 100
COc1cnc(Cl)cc1-c1cc(C)ncc1C(=O)Nc1nc2cc(F)c(C3=CCC(O)CC3)cc2s1 (stereo not drawn) [Example 84] | 1.81 | < 50 | 2.42 | < 100
COc1cnc(Cl)cc1-c1cc(C)ncc1C(=O)Nc1nc2cc(F)c(-c3ccc(P(C)(C)=O)cc3)cc2s1 [Example 85] | 1.81 | < 50 | 44.7 | < 100
COc1cnc(Cl)cc1-c1cc(C)ncc1C(=O)Nc1nc2ncc(C3=COCCO3)cc2s1 [Example 86] | 2.67 | < 50 | 23.3 | < 100
COc1cnc(Cl)cc1-c1cc(C)ncc1C(=O)Nc1nc2ncc(C3(O)CCC4(CC3)COC4)cc2s1 [Example 88, 2'-chloro-N-(6-(7-hydroxy-2-oxaspiro[3.5]non-7-yl)thiazolo[4,5-b]pyridin-2-yl)-5'-methoxy-6-methyl-[4,4'-bipyridine]-3-carboxamide] | 1.15 | < 50 | 52.1 | < 100
COc1cnc(Cl)cc1-c1cc(C)ncc1C(=O)Nc1nc2cc[nH]c2s1 [Example 90, 2'-chloro-5'-methoxy-6-methyl-N-(4H-pyrrolo[3,2-d]thiazol-2-yl)-[4,4'-bipyridine]-3-car boxamide] |  | > 500 |  | > 1000
COc1cnc(Cl)cc1-c1cc(C)ncc1C(=O)Nc1nc2cnc(C3=CCC(O)CC3)nc2s1 (stereo not drawn) [Example 91, 2'-chloro-N-(5-(4-hydroxycyclohex-1-en-1-yl)thiazolo[5,4-d]pyrimidin-2-yl)-5'-methoxy-6-methyl-[4,4'-bipyridine]-3-carboxamide] | 1.88 | < 50 | 11.7 | < 100
COc1cnc(Cl)cc1-c1cc(C)ncc1C(=O)Nc1nc2ncc(CC(C)(C)O)cc2s1 [Example 93, 2'-chloro-N-(6-(2-hydroxy-2-methylpropyl)thiazolo[4,5-b]pyridin-2-yl)-5'-methoxy-6-me thyl-[4,4'-bipyridine]-3-carboxamide] | 5.93 | < 50 | 355 | 100 to 500
COc1cnc(Cl)cc1-c1cc(C)ncc1C(=O)Nc1nc2ncc(S(C)(=O)=O)cc2s1 [Example 94, 2'-chloro-5'-methoxy-6-methyl-N-(6-(methylsulfonyl)thiazolo[4,5-b]pyridin-2-yl)-[4,4'-bipyridine]-3-carboxamide] | 6.98 | < 50 | 631 | 500 to 1000
COc1cnc(Cl)cc1-c1cc(C)ncc1C(=O)Nc1nc2ncc(C(C)(C)O)cc2s1 [Example 95, 2'-chloro-N-(6-(2-hydroxypropan-2-yl)thiazolo[4,5-b]pyridin-2-yl)-5'-methoxy-6-methyl-[4,4'-bipyridine]-3-carboxamide] | 8.94 | < 50 | 383 | 100 to 500
COc1cnc(Cl)cc1-c1cc(C)ncc1C(=O)Nc1nc2ncc(C(=O)N3CCC(O)CC3)cc2s1 [Example 96, 2'-chloro-N-(6-(4-hydroxypiperidin-1-carbonyl)thiazolo[4,5-b]pyridin-2-yl)-5'-methoxy-6-methyl-[4,4'-bipyridine]-3-carboxamide] | 5.58 | < 50 | 7640 | > 1000
COc1cnc(Cl)cc1-c1cc(C)ncc1C(=O)Nc1nc2ncc(N3CCC(CO)CC3)cc2s1 [Example 98, 2'-chloro-N-(6-(4-(hydroxymethyl)piperidin-1-yl)thiazolo[4,5-b]pyridin-2-yl)-5'-methox y-6-methyl-[4,4'-bipyridine]-3-carboxamide] | 2.96 | < 50 | 10.6 | < 100
COc1cnc(Cl)cc1-c1cc(C)ncc1C(=O)Nc1nc2ncc(N3CCC4(CC(O)C4)C3)cc2s1 (stereo not drawn) [Example 99] | 14.3 | < 50 | 138 | 100 to 500
COc1cnc(Cl)cc1-c1cc(C)ncc1C(=O)Nc1nc2ncc(N3CC[C@H](O)[C@H](F)C3)cc2s1 [Example 100] | 2.95 | < 50 | 207 | 100 to 500
COc1cnc(Cl)cc1-c1cc(C)ncc1C(=O)Nc1nc2ncc(N3CC[C@@H](O)[C@H](F)C3)cc2s1 [Example 101] | 3.78 | < 50 | 389 | 100 to 500
COc1cnc(Cl)cc1-c1cc(C)ncc1C(=O)Nc1nc2ccc(N3CCC(O)CC3)cc2s1 [Example 102] | 8.06 | < 50 | 178 | < 100
COc1cnc(Cl)cc1-c1cc(C)ncc1C(=O)Nc1nc2c(F)cc(N3CCC(O)CC3)cc2s1 [Example 103] | 2.67 | < 50 | 22.4 | < 100
COc1cnc(Cl)cc1-c1cc(C)ncc1C(=O)Nc1nc2ccc(N3CCC(O)CC3)c(F)c2s1 [Example 104] | 1.56 | < 50 | 5.62 | < 100
COc1cnc(Cl)cc1-c1cc(C)ncc1C(=O)Nc1nc2ncc(-c3ccnc(N4CCN[C@H](C)C4)c3)cc2s1 [Example 105, (R)-2'-chloro-5'-methoxy-6-methyl-N-(6-(2-(3-methylpiperazin-1-yl)pyridin-4-yl)thiazolo[4,5-b]pyridin-2-yl)-[4,4'-bipyridine]-3-carboxamide] | 6.99 | < 50 | 152 | 100 to 500
COc1cnc(Cl)cc1-c1cc(C)ncc1C(=O)Nc1nc2ncc(N3CCC(O)(CO)CC3)cc2s1 [Example 106, 2'-chloro-N-(6-(4-hydroxy-4-(hydroxymethyl)piperidin-1-yl)thiazolo[4,5-b]pyridin-2-yl) -5'-methoxy-6-methyl-[4,4'-bipyridine]-3-carboxamide] | 6.18 | < 50 | 450 | 100 to 500
[2H]COc1cnc(Cl)cc1-c1cc(C)ncc1C(=O)Nc1nc2cnc(C3=CCC(O)CC3)cc2s1 (stereo not drawn) [Example 108, 2'-chloro-N-(6-(4-hydroxycyclohex-1-en-1-yl)thiazolo[4,5-c]pyridin-2-yl)-5'-deuteromet hoxy-6-methyl-[4,4'-bipyridine]-3-carboxamide] | 1.88 | < 50 | 8.79 | < 100
[2H]C([2H])([2H])c1cc(-c2cc(Cl)ncc2OC)c(C(=O)Nc2nc3cnc(C4=CCC(O)CC4)cc3s2)cn1 (stereo not drawn) [Example 110, 2'-chloro-N-(6-(4-hydroxycyclohex-1-en-1-yl)thiazolo[4,5-c]pyridin-2-yl)-5'-methoxy-6-(methyl-d3)-[4,4'-bipyridine]-3-carboxamide] | 2.61 | < 50 | 2.41 | < 100

Second part, led by results:

IC50 [1, 4] [nM] | IC50 [1, 5] [nM] | Compound | IC50 (cells; [2]) [nM] | IC50 (cells; [3]) [nM]
3.15 | < 50 | COc1cnc(Cl)cc1-c1cc(C)ncc1C(=O)Nc1nc2ncc(N3CCC(N(C)C)CC3)cc2s1 [Example 72] | 190 | 100 to 500
1.67 | < 50 | CNC1CCN(c2cnc3nc(NC(=O)c4cnc(C)cc4-c4cc(Cl)ncc4OC)sc3c2)CC1 [Example 73] | 209 | 100 to 500
6.44 | < 50 | COc1cnc(Cl)cc1-c1cc(C)ncc1C(=O)Nc1nc2ncc(N3CCC(NC(=O)C4(C)CC4)CC3)cc2s1 [Example 74] | 383 | 100 to 500
2.51 | < 50 | COc1cnc(Cl)cc1-c1cc(C)ncc1C(=O)Nc1nc2ncc(-c3ccc(P(C)(C)=O)cc3)cc2s1 [Example 75, 2'-chloro-N-(6-(4-(dimethylphosphoryl)phenyl)thiazolo[4,5-b]pyridin-2-yl)-5'-methoxy-6-methyl-[4,4'-bipyridine]-3-carboxamide] | 681 | 500 to 1000
5.14 | < 50 | COc1cnc(Cl)cc1-c1cc(C)ncc1C(=O)Nc1nc2ncc(-c3ccc(=O)[nH]c3)cc2s1 [Example 76] |  | > 1000
3.94 | < 50 | COc1cnc(Cl)cc1-c1cc(C)ncc1C(=O)Nc1nc2ncc(C3=CCC4(CC3)CC(O)C4)cc2s1 (stereo not drawn) [Example 77] | 7.36 | < 100
2.89 | < 50 | COc1cnc(Cl)cc1-c1cc(C)ncc1C(=O)Nc1nc2ncc(C3=CCC4(CC3)COC4)cc2s1 [Example 78] | 8.21 | < 100
3.35 | < 50 | COc1cnc(Cl)cc1-c1cc(C)ncc1C(=O)Nc1nc2ncc(C3=CC(O)CC3)cc2s1 (stereo not drawn) [Example 79] | 92.6 | < 100
9.12 | < 50 | COc1cnc(Cl)cc1-c1cc(C)ncc1C(=O)Nc1nc2ccc(-c3c(C)cnn3C)nc2s1 [Example 80] | 30.3 | < 100
2.51 | < 50 | COc1cnc(Cl)cc1-c1cc(C)ncc1C(=O)Nc1nc2ncc(-c3ccc(N4CCNCC4)cc3)cc2s1 [Example 81] | 30.4 | < 100
6.71 | < 50 | COc1cnc(Cl)cc1-c1cc(C)ncc1C(=O)Nc1nc2ccc(-c3ccncc3Cl)nc2s1 [Example 82] | 104 | 100 to 500

From patent EP4585599A1, “NITROGEN-CONTAINING FUSED RING COMPOUND, INTERMEDIATE THEREOF, PREPARATION METHOD THEREFOR AND USE THEREOF” (Hangzhou Synrx Therapeutics Biomedical Technology Co., Ltd., priority 2022, dated 2024)
